Experimental data published in patent publication US11192863B2, “Antiviral compounds and methods” (Biotron Limited, priority 2003, dated 2021).
Counter-ions that a name gives are not always drawn. Like-named read-outs stand apart in the source and are kept apart here.

What was measured:
[1] = biological target: SARS-CoV E protein (Severe acute respiratory syndrome coronavirus, UniProt P59637); assay type: cell-based
[2] = biological target: Vpu protein (Human immunodeficiency virus type 1 group M subtype B, UniProt P05919); details: halo of growth score between zero and six; XL1-blue E. coli with pPL-Vpu, no adenine, 37° C.
[3] = test system: MHV (strain MHV-A59); details: L929 cells
[4] = biological target: 229E-CoV E-protein (Human coronavirus 229E, UniProt P19741); assay: Bacterial bio-assay for 229E-CoV E-protein; details: halo of growth score; E. coli expressing E protein at 37° C.

NC(N)=NC(=O)c1cccc2ccccc12 [1-napthoylguanidine]
SARS E protein Inhibition (score/# of times tested) [1]: 1.32/3 score
Vpu Inhibition (score/# of times tested) [2]: 0.3/2 score
Percent reduction in Plaque number/# experiments ([3]; 1 uM): 2/3%
Percent reduction in Plaque number/# experiments ([3]; 10 uM): 62/3%
Percent reduction in Plaque number/# experiments ([3]; 20 uM): 71/3%
229E E protein Inhibition (score) [4]: 1.9 score

Cc1cc(C)c(C)c(/C=C/C(=O)NC(=N)N)c1C [2,3,5,6,-tetramethylcinnamoylguanidine]
SARS E protein Inhibition (score/# of times tested) [1]: 1.00/1 score
Vpu Inhibition (score/# of times tested) [2]: 1.6/2 score
Percent reduction in Plaque number/# experiments ([3]; 1 uM): 0/1%
Percent reduction in Plaque number/# experiments ([3]; 10 uM): 68/2%
229E E protein Inhibition (score) [4]: 0.3 score

N=C(N)NC(=O)/C=C/c1cccc(F)c1F [2,3-difluorocinnamoylguanidine]
SARS E protein Inhibition (score/# of times tested) [1]: 4.50/1 score
Vpu Inhibition (score/# of times tested) [2]: 1.56/2 score
Percent reduction in Plaque number/# experiments ([3]; 1 uM): 64/2%
Percent reduction in Plaque number/# experiments ([3]; 10 uM): 92/3%
Toxic (noted in place of plaque reduction) ([3]; 20 uM): Toxic
229E E protein Inhibition (score) [4]: 3.3 score

Cc1cccc(/C=C/C(=O)NC(=N)N)c1C [2,3-dimethylcinnamoylguanidine]
Vpu Inhibition (score/# of times tested) [2]: 3.1/2 score
Percent reduction in Plaque number/# experiments ([3]; 1 uM): 34/1%
Percent reduction in Plaque number/# experiments ([3]; 10 uM): 79/2%
Percent reduction in Plaque number/# experiments ([3]; 20 uM): 95/1%
229E E protein Inhibition (score) [4]: 0.5 score

Cc1cc(C)c(/C=C/C(=O)NC(=N)N)c(C)c1 [2,4,6-trimethylcinnamoylguanidine]
Vpu Inhibition (score/# of times tested) [2]: 1.4/2 score
Percent reduction in Plaque number/# experiments ([3]; 1 uM): 27/2%
Percent reduction in Plaque number/# experiments ([3]; 10 uM): 61/3%
Percent reduction in Plaque number/# experiments ([3]; 20 uM): 91/2%
229E E protein Inhibition (score) [4]: 0.9 score

Cc1ccc(C)c(/C=C/C(=O)NC(=N)N)c1 [2,5-dimethylcinnamoylguanidine]
SARS E protein Inhibition (score/# of times tested) [1]: 3.63/1 score
Vpu Inhibition (score/# of times tested) [2]: 2.69/2 score
Percent reduction in Plaque number/# experiments ([3]; 1 uM): 39/3%
Percent reduction in Plaque number/# experiments ([3]; 10 uM): 91/3%
Percent reduction in Plaque number/# experiments ([3]; 20 uM): 95/3%
229E E protein Inhibition (score) [4]: 1.6 score

N=C(N)NC(=O)/C=C/c1ccccc1C(F)(F)F [2-(trifluoromethyl)cinnamoylguanidine]
SARS E protein Inhibition (score/# of times tested) [1]: 1.38/1 score
Vpu Inhibition (score/# of times tested) [2]: 2.4/2 score
Percent reduction in Plaque number/# experiments ([3]; 1 uM): 13/1%
Percent reduction in Plaque number/# experiments ([3]; 10 uM): 15/1%
Percent reduction in Plaque number/# experiments ([3]; 20 uM): 19/1%
229E E protein Inhibition (score) [4]: 1.5 score

N=C(N)NC(=O)/C=C/c1ccccc1C1CCCCC1 [2-cyclohexylcinnamoylguanidine]
SARS E protein Inhibition (score/# of times tested) [1]: 1.83/1 score
Vpu Inhibition (score/# of times tested) [2]: 0.8/2 score
Percent reduction in Plaque number/# experiments ([3]; 1 uM): 16/1%
Percent reduction in Plaque number/# experiments ([3]; 10 uM): 74/2%
Percent reduction in Plaque number/# experiments ([3]; 20 uM): 100/1%
229E E protein Inhibition (score) [4]: 0.8 score

CCOc1ccccc1/C=C/C(=O)NC(=N)N [2-ethoxycinnamoylguanidine]
SARS E protein Inhibition (score/# of times tested) [1]: 2.57/1 score
Vpu Inhibition (score/# of times tested) [2]: 2.25/2 score
Percent reduction in Plaque number/# experiments ([3]; 1 uM): 48/2%
Percent reduction in Plaque number/# experiments ([3]; 10 uM): 85/3%
Percent reduction in Plaque number/# experiments ([3]; 20 uM): 93/2%
229E E protein Inhibition (score) [4]: 0.6 score

CCc1ccccc1/C=C/C(=O)NC(=N)N [2-ethylcinnamoylguanidine]
SARS E protein Inhibition (score/# of times tested) [1]: 1.50/1 score
Vpu Inhibition (score/# of times tested) [2]: 2.75/2 score
Percent reduction in Plaque number/# experiments ([3]; 1 uM): 34/1%
Percent reduction in Plaque number/# experiments ([3]; 10 uM): 81/2%
Percent reduction in Plaque number/# experiments ([3]; 20 uM): 96/1%
229E E protein Inhibition (score) [4]: 0.8 score

N=C(N)NC(=O)/C=C/c1ccccc1-c1ccccc1 [2-phenylcinnamoylguanidine]
Vpu Inhibition (score/# of times tested) [2]: 2.1/2 score
Percent reduction in Plaque number/# experiments ([3]; 1 uM): 42/1%
Percent reduction in Plaque number/# experiments ([3]; 10 uM): 100/1%
229E E protein Inhibition (score) [4]: 3.0 score

COc1cc(/C=C/C(=O)NC(=N)N)cc(OC)c1OC [3,4,5-trimethoxycinnamoylguanidine]
SARS E protein Inhibition (score/# of times tested) [1]: 2.25/1 score
Percent reduction in Plaque number/# experiments ([3]; 1 uM): 21/1%
Percent reduction in Plaque number/# experiments ([3]; 10 uM): 84/1%
Percent reduction in Plaque number/# experiments ([3]; 20 uM): 84/1%
229E E protein Inhibition (score) [4]: 0.1 score

N=C(N)NC(=O)/C=C/c1ccc(F)c(F)c1 [3,4-difluorocinnamoylguanidine]
Vpu Inhibition (score/# of times tested) [2]: 2.06/2 score
Percent reduction in Plaque number/# experiments ([3]; 1 uM): 50/1%
Percent reduction in Plaque number/# experiments ([3]; 10 uM): 91/2%
Toxic (noted in place of plaque reduction) ([3]; 20 uM): Toxic
229E E protein Inhibition (score) [4]: 0.4 score

CCOc1cccc(/C=C/C(=O)NC(=N)N)c1 [3-ethoxycinnamoylguanidine]
Vpu Inhibition (score/# of times tested) [2]: 1.9/2 score
Percent reduction in Plaque number/# experiments ([3]; 1 uM): 58/1%
Percent reduction in Plaque number/# experiments ([3]; 10 uM): 89/2%
Percent reduction in Plaque number/# experiments ([3]; 20 uM): 100/1%
229E E protein Inhibition (score) [4]: 0.3 score

CC(C)c1cccc(/C=C/C(=O)NC(=N)N)c1.Cl [3-isopropylcinnamoylguanidine hydrochloride]
Vpu Inhibition (score/# of times tested) [2]: 2.6/2 score
Percent reduction in Plaque number/# experiments ([3]; 1 uM): 32/1%
Percent reduction in Plaque number/# experiments ([3]; 10 uM): 99/2%
229E E protein Inhibition (score) [4]: 4.0 score

CC(C)(C)c1ccc(/C=C/C(=O)NC(=N)N)cc1 [4-t-butylcinnamoylguanidine]
SARS E protein Inhibition (score/# of times tested) [1]: 4.00/1 score
Vpu Inhibition (score/# of times tested) [2]: 0.19/2 score
229E E protein Inhibition (score) [4]: 4.0 score

N=C(N)NC(=O)CCc1ccccc1 [(3-phenylpropanoyl)guanidine]
SARS E protein Inhibition (score/# of times tested) [1]: 0.73/5 score
Vpu Inhibition (score/# of times tested) [2]: 0.2/4 score
Percent reduction in Plaque number/# experiments ([3]; 1 uM): 0/1%
Percent reduction in Plaque number/# experiments ([3]; 10 uM): 03/1%
Percent reduction in Plaque number/# experiments ([3]; 20 uM): 51/1%

N/C(=N\C(=O)c1nc(Cl)c(N)nc1N)NCc1ccccc1 [Benzamil hydrochloride, N-Benzyl-N′-(3,5-diamino-6-chloro-pyrzine-2-carbonyl)-guanidine]
SARS E protein Inhibition (score/# of times tested) [1]: 1.32/2 score
Vpu Inhibition (score/# of times tested) [2]: 0.9/3 score
Percent reduction in Plaque number/# experiments ([3]; 1 uM): 0/1%
Percent reduction in Plaque number/# experiments ([3]; 10 uM): 26/1%
Percent reduction in Plaque number/# experiments ([3]; 20 uM): 0/1%

NC(N)=NC(=O)c1ccc2cc(C(=O)N=C(N)N)ccc2c1 [N,N′-Bis(amidino)napthalene-2,6-dicarboxamide]
SARS E protein Inhibition (score/# of times tested) [1]: 0.25/2 score
Percent reduction in Plaque number/# experiments ([3]; 1 uM): 0/1%
Percent reduction in Plaque number/# experiments ([3]; 10 uM): 16/1%
Percent reduction in Plaque number/# experiments ([3]; 20 uM): 19/1%
229E E protein Inhibition (score) [4]: 0.3 score

N=C(NC(=O)/C=C/c1ccccc1)Nc1ccccc1 [N-(cinnamoyl)-N′phenylguanidine, N-(cinnamoyl)-N′-phenylguanidine]
SARS E protein Inhibition (score/# of times tested) [1]: 1.19/2 score
Vpu Inhibition (score/# of times tested) [2]: 1.25/3 score
Percent reduction in Plaque number/# experiments ([3]; 1 uM): 13/1%
Percent reduction in Plaque number/# experiments ([3]; 10 uM): 88/1%
Percent reduction in Plaque number/# experiments ([3]; 20 uM): 83/1%

N/C(=N\C(=O)/C=C/c1ccccc1)NC(=O)c1ccccc1 [N-Benzoyl-N′-cinnamoylguanidine]
SARS E protein Inhibition (score/# of times tested) [1]: 0.13/2 score
Vpu Inhibition (score/# of times tested) [2]: 0.06/2 score
Percent reduction in Plaque number/# experiments ([3]; 1 uM): 14/1%
Percent reduction in Plaque number/# experiments ([3]; 10 uM): 0/1%
Percent reduction in Plaque number/# experiments ([3]; 20 uM): 0/1%

N=C(N)NC(=O)COc1ccc(Cl)cc1 [[(4-Chlorophenoxy-acetyl]guanidine, (4-Chlorophenoxy-acetyl)guanidine]
SARS E protein Inhibition (score/# of times tested) [1]: 0.19/2 score
Vpu Inhibition (score/# of times tested) [2]: 0.56/2 score
Percent reduction in Plaque number/# experiments ([3]; 1 uM): 0/1%
Percent reduction in Plaque number/# experiments ([3]; 10 uM): 16/1%
Percent reduction in Plaque number/# experiments ([3]; 20 uM): 19/1%

N=C(N)NC(=O)/C=C/c1ccoc1 [trans-3-Furanacryoylguanidine, trans-3-furanacryoylguanidine]
SARS E protein Inhibition (score/# of times tested) [1]: 0.88/2 score
Vpu Inhibition (score/# of times tested) [2]: 0.38/2 score
Percent reduction in Plaque number/# experiments ([3]; 1 uM): 48/1%
Percent reduction in Plaque number/# experiments ([3]; 10 uM): 65/1%
Percent reduction in Plaque number/# experiments ([3]; 20 uM): 70/1%
